Laboratory results as given in patent US4704400A, “Medicarpin derivatives and analogs” (Merck & Co., Inc., priority 1986, dated 1987).

What was measured:
[1] = tested on: leukotriene C4 production in CXBG cells; assay: Inhibition of CXBG leukotriene production (leukotriene C4 by enzyme immunoassay, A23187-stimulated cells); type: cell-based, mice; settings: A23187 stimulation 10 minutes at 37°, inhibitor preincubated 5 minutes
Description: (§1) Representative compounds of Formula I have been tested using the following assay to determine their mammalian leukotriene biosynthesis inhibiting activity and other relevant activities:
(§2) CXBG cells grown intraperitoneally in CB4 B6 /F1 /J mice were washed 5 times in Dulbeccos phosphate buffered saline without calcium or magnesium, suspended in medium 199 (Gibco) at 2×10^6 cells/ml, and incubated 15 minutes at 37°. Inhibitor solutions in methanol were incubated with the cells (10 μl/600 μl cells), for 5 minutes at 37°, and the cells were stimulated with 60 μl A23187 (50 μg/ml) for 10 minutes at 37°. Aliquots were removed for measurement of leukotriene C4 or thromboxane B2 by enzyme immunoassay as previously reported (D. K. Miller, et al., J. Immunological Methods, 81, 169-185, 1985). The percentage inhibition was calculated by the following: [formula]
(§3) IC50 s were determined graphically.

[2] = tested on: thromboxane B2 production in CXBG cells; assay: Inhibition of CXBG prostoglandin production (thromboxane B2 by enzyme immunoassay, A23187-stimulated cells); type: cell-based, mice; settings: A23187 stimulation 10 minutes at 37°, inhibitor preincubated 5 minutes
Description: as §1, §2, §3

prostaglandin = settings: isolated from Dalbergia Odorifera T. Chen.; cited from earlier work

| Compound | IC50, LTC4 [1] [µg/mL] | IC50, TXB2 [2] [µg/mL] | prostaglandin inhibition (prostaglandin) |
| --- | --- | --- | --- |
| (iso)medicarpin | 0.1 | > 5 |  |
| COc1ccc2c(c1)O[C@H]1c3ccc(O)cc3OC[C@@H]21 (relative stereo) [medicarpin] |  |  | negative results |
